# ChEMBL document CHEMBL1201862, “PubChem BioAssay data set” (2004)
# The source made the active and inactive calls.
# Experiments:
# [1] = target: T1, Short transient receptor potential channel 4 (Mus musculus, UniProt Q9QUQ5); assay: mouse TRPC4 channel inhibitors, dose response, cell-based, HEK293 TRPC4/mu-opioid, Fluo-4 calcium (AID 434942); format: functional;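 note: potency of inhibitors blocking the TRPC4 calcium response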
# T1 sequence (Q9QUQ5 whole entry): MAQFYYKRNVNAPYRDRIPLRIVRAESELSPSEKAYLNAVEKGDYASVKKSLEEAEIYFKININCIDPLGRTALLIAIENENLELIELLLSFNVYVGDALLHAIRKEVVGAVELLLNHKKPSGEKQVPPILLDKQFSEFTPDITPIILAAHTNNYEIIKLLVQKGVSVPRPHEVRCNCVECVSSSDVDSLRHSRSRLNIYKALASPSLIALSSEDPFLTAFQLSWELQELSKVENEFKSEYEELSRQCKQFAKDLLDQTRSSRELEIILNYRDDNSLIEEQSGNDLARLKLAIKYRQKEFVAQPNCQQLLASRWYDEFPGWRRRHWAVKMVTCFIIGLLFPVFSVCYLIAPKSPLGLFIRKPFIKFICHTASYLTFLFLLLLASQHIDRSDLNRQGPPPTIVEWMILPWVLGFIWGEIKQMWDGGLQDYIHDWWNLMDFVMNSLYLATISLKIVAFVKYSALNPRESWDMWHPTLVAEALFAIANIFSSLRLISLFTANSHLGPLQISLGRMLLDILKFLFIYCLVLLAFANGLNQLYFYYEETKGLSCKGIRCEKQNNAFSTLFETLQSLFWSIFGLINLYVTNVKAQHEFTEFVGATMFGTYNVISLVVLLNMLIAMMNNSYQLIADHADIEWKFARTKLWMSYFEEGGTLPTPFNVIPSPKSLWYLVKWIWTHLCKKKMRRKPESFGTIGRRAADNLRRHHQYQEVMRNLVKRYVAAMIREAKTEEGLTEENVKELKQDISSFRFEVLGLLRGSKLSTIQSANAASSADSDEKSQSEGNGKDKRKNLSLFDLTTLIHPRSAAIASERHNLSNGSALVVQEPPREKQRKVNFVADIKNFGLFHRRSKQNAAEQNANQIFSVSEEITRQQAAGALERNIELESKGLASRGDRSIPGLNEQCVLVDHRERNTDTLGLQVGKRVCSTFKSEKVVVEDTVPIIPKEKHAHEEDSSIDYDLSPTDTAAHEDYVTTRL
# [2] = target: T2, Rac GTPase-activating protein 1 (Homo sapiens, UniProt Q9H0H5); assay: MgcRacGAP GTPase-activating activity inhibitors, confirmation, biochemical, ADP Hunter fluorescence, primary and confirmatory (AID 624330); format: functional
# T2 sequence (Q9H0H5 whole entry): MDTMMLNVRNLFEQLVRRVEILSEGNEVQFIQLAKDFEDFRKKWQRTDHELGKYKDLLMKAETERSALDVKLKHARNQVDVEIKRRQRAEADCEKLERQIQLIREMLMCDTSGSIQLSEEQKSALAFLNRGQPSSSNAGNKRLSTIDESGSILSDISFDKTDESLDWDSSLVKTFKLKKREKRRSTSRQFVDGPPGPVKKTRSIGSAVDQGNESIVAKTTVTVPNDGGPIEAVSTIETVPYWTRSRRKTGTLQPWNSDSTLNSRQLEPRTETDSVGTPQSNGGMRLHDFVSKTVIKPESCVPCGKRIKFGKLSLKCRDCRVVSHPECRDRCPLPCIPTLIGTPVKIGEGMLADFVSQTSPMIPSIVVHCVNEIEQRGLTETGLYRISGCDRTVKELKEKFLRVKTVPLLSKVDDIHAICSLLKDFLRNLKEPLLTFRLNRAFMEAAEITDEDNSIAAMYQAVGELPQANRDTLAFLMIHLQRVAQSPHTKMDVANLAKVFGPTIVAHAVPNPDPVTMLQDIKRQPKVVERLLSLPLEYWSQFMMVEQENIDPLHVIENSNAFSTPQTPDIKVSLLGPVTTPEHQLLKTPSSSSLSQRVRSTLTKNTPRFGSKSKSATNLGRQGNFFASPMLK
# [3] = target: Luciferin 4-monooxygenase (Photinus pyralis, UniProt P08659); assay: firefly luciferase enzyme inhibitors, dose response, biochemical, luminescence (AID 1891)
# Chain of Luciferin 4-monooxygenase (P08659 whole entry): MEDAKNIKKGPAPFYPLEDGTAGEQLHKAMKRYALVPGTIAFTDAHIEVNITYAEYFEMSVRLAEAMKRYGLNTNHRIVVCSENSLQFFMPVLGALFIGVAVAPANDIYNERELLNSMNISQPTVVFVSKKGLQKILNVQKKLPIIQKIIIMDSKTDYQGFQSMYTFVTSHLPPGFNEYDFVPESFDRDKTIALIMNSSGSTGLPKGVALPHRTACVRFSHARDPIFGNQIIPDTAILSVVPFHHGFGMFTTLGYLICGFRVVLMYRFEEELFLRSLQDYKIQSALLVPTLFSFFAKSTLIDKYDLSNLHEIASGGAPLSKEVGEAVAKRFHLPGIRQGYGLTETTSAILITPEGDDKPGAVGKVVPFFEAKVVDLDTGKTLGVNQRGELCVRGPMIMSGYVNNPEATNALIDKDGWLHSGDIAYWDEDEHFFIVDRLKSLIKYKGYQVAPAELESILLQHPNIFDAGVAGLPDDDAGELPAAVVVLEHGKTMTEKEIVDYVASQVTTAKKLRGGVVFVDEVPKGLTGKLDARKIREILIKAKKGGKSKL
# [4] = Luminescence Cell-Based Dose Confirmation HTS to Identify Inhibitors of Platelet Dense Granule Release. [Related pubchem assays: 1663 (Primary HTS), 1678 (Summary of Project)]; format: functional
# [5] = tested on: HeLa; assay: HeLa cell cytotoxicity, dose response, cytotoxicity control for MITF activator project, CellTiter-Glo luminescence, cherry-pick samples (AID 540259); format: functional, cell-based; conditions: Homo sapiens
# [6] = target: T3, RNA-binding protein pos-1 (Caenorhabditis elegans, UniProt G5EF15); assay: inhibitors of POS-1/mex-3 RNA binding, dose response, biochemical, fluorescence polarization (AID 1964);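 note: purified POS-1 fused to maltose binding protein made in E. coli; potency of compounds blocking POS-1 binding to fluorescent RNA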
# T3 sequence (G5EF15 whole entry): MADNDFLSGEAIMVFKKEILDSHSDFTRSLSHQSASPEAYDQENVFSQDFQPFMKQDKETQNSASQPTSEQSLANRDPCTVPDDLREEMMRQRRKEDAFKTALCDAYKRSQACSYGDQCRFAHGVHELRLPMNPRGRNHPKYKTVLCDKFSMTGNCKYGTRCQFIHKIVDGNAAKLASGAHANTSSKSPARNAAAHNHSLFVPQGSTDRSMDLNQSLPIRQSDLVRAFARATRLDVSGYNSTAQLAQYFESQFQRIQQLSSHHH
# [7] = target: T4, Zinc finger protein mex-5 (Caenorhabditis elegans, UniProt Q9XUB2); assay: MEX-5/TCR-2 RNA interaction inhibitors, dose response, biochemical, C. elegans, fluorescence polarization (AID 1960)
# T4 sequence (Q9XUB2 whole entry): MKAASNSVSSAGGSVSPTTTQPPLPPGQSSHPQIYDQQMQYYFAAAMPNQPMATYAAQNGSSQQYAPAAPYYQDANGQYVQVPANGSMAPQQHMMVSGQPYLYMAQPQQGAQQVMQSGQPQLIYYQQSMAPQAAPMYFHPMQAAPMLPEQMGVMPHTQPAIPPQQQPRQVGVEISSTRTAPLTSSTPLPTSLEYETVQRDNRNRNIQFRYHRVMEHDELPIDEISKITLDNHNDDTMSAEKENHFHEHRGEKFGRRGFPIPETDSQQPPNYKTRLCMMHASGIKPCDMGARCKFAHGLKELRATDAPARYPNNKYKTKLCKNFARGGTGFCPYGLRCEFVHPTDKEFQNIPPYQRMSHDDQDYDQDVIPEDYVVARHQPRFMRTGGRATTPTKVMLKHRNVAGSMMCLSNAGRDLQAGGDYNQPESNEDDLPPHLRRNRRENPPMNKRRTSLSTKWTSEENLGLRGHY
# [8] = target: Cytochrome P450 2C19 (Homo sapiens, UniProt P33261); assay: Cytochrome panel assay with activity outcomes. Panel member name: p450-cyp2c19 Compounds with AC50 equal or less than 10 uM are considered active; format: functional; conditions: read-out: AC50
# Chain of Cytochrome P450 2C19 (P33261 whole entry): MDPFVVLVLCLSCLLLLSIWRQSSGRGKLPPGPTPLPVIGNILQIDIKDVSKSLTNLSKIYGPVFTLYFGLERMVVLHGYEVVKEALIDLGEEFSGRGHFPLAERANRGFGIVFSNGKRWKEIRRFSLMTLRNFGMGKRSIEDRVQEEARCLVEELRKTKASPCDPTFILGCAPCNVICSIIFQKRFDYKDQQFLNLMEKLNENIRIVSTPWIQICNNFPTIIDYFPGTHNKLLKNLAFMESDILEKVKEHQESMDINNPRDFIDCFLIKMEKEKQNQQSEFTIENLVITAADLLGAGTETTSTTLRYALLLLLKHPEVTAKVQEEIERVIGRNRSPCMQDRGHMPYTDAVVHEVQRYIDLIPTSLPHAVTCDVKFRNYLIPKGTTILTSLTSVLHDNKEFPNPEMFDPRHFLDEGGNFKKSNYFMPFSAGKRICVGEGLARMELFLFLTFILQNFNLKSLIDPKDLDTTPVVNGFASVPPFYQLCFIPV
# [9] = target: Cytochrome P450 2C9 (Homo sapiens, UniProt P11712)
# Chain of Cytochrome P450 2C9 (P11712 whole entry): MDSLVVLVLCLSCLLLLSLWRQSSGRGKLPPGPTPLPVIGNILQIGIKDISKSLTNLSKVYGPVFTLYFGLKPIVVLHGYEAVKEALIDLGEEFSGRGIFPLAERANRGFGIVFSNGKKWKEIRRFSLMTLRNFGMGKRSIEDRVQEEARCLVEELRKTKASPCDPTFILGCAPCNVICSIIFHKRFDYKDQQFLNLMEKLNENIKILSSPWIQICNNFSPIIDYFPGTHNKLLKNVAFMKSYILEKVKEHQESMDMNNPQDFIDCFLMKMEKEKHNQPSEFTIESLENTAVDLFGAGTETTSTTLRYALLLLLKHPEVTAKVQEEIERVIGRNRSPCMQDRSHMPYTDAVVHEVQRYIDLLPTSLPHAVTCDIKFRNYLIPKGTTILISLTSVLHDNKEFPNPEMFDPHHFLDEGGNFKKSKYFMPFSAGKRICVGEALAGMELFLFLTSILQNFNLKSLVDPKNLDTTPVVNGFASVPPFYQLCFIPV
# [10] = target: T5, Polyadenylate-binding protein 1 (Homo sapiens, UniProt P11940); assay: PABP1 MLLE–PAM2 interaction inhibitors, dose response, miRNA deadenylation inhibitor project, biochemical, fluorescence polarization, Cy5-PAM2 peptide, secondary (AID 602260); format: functional; conditions: read-out: IC50_Mean
# T5 sequence (P11940 whole entry): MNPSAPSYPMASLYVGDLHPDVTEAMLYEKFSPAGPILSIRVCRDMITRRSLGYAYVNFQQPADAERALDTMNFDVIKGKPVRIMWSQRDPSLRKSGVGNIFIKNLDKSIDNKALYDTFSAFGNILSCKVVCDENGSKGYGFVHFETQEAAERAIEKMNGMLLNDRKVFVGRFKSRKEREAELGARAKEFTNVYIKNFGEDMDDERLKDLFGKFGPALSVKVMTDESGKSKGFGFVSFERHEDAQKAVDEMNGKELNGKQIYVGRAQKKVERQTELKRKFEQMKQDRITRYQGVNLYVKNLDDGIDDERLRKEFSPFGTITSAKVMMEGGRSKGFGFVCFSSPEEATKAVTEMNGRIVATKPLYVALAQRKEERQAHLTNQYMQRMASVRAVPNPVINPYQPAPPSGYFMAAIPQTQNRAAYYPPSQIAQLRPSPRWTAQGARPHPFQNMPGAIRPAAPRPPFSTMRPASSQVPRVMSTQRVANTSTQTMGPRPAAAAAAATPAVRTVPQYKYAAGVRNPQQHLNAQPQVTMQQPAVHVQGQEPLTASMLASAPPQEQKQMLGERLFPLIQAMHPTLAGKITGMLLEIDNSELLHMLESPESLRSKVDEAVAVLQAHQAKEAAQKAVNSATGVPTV
# [11] = target: T5, Polyadenylate-binding protein 1; assay: PABP1 MLLE–PAM2 binding inhibitor potency, dose response, biochemical, fluorescence polarization, FITC-PAM2 peptide (AID 602259); format: functional; conditions: read-out: IC50_Mean
compound,measurement,setting,value
CCCCNCc1cc(Cl)c(OCCC)c(OCC)c1,EC50,[1],2.37 µM (active)
COc1ccc(OC(=O)COc2ccc(C)cc2)cc1,IC50,[2],30 µM (active)
CCc1nnc(NS(=O)(=O)c2ccc(NCc3ccccc3O)cc2)s1,EC50,[3],> 112 µM (not active)
same,EC50,[4],> 112 µM (not active)
COc1cc(C)c(NC(c2ccccc2)c2ccccc2)cc1OC,IC50,[2],113 µM (active)
CCOC(=O)c1c(N)sc(C(=O)Nc2ccc3c(c2)OCO3)c1C,EC50,[3],1.28 µM (active)
same,EC50,[4],3.34 µM (active)
CC(C)=CCCC(C)CN1CCC(n2nccc2NC(=O)C2CCCC2)CC1 (stereo unspecified),EC50,[1],5.31 µM (active)
Nc1c(Cl)cc(NC(=O)c2ccccc2C(=O)O)cc1Br,IC50,[2],169 µM (active)
COc1cc2c(cc1OC)-c1cc(Nc3cccc(F)c3)nc(=O)n1CC2,EC50,[3],> 112 µM (not active)
same,EC50,[4],1.08 µM (active)
Cc1cc2cc(C#N)c(NCCN=C(S)NCCCN3CCOCC3)nc2cc1C,EC50,[1],5.31 µM (active)
NC(=O)c1nsc(C(=O)N(Cc2ccc(F)cc2)C(C(=O)NCC2CCCO2)c2ccc(O)cc2)c1N (stereo unspecified),EC50,[1],2.37 µM (active)
Nc1c(-c2ccc(Cl)cc2)cnn1-c1ccccc1,AC50,[5],64.2 µM (active)
CC(C)c1ccc(/C=C(\NC(=O)c2ccccc2)C(=O)NCCN2CCOCC2)cc1,EC50,[6],> 300 µM (not active)
same,EC50,[7],> 300 µM (not active)
CC(Oc1ccc(Cl)cc1Cl)c1nc(-c2ccccn2)no1 (stereo unspecified),EC50,[1],1.88 µM (active)
CCCCN(CCCC)C(=N)Nc1nc(C)cc(C)n1,EC50,[1],3.76 µM (active)
Cc1ccc(-n2[nH]c(=O)c3cccnc32)cc1,AC50,[8],25.1 µM (inconclusive)
same,IC50,[2],95.2 µM (active)
same,AC50,[9],28.2 µM (inconclusive)
COC(=O)c1c(C)[nH]c(C(=O)OCC(=O)N2c3ccccc3NC(=O)C2(C)C)c1C,EC50,[3],> 112 µM (not active)
same,EC50,[4],> 112 µM (not active)
CSCC(C)N1CCC(Oc2cccc(C(=O)NCc3ccccn3)c2)CC1 (stereo unspecified),EC50,[6],34.9 µM (active)
same,EC50,[7],75.4 µM (active)
same,IC50,[10],34.1 µM (inactive)
same,IC50,[11],31.6 µM (inactive)
O=C(NNC(=O)c1ccccc1O)c1cccc(Br)c1,EC50,[6],41 µM (active)
same,EC50,[7],25.6 µM (active)
Cc1ccc(NC(=O)COC(=O)[C@H](C)NC(=O)c2ccccc2)cc1S(=O)(=O)N1CCOCC1,EC50,[3],> 112 µM (not active)
same,EC50,[4],> 112 µM (not active)
CN(c1ccc(C(=O)Nc2ccc3c(c2)OCO3)cc1)S(C)(=O)=O,EC50,[3],26.3 µM (active)
same,EC50,[4],6 µM (active)
Oc1c(Br)cc(Br)cc1/C=N/c1ccc2[nH]ncc2c1,EC50,[1],4.22 µM (active)
O=C(c1ccc(F)cc1)c1ccc(N2CCCCC2)cc1,AC50,[5],57.7 µM (active)
Cc1ccc([N+](=O)[O-])cc1S(=O)(=O)Nc1ccc(O)c(Sc2nc[nH]n2)c1,EC50,[6],9.8 µM (active)
same,EC50,[7],9.83 µM (inconclusive)
same,IC50,[10],> 66 µM (inactive)
same,IC50,[11],> 66 µM (inactive)
Cc1occc1C(=O)O/N=C(\N)c1ccccc1,EC50,[3],3.91 µM (active)
same,EC50,[4],2.59 µM (active)
Fc1ccc(-n2cc(CNCCc3ccncc3)c(-c3ccccc3Cl)n2)cc1,EC50,[1],3.35 µM (active)
COCCCNC(CC(=O)Nc1cc(C)cc(C)c1)C(=O)O (stereo unspecified),EC50,[6],> 300 µM (not active)
same,EC50,[7],> 300 µM (not active)
CCCc1ccc(-c2cc(C(=O)NCCc3ccc(S(N)(=O)=O)cc3)c3ccccc3n2)cc1,AC50,[5],37.5 µM (active)
CN(C)C1=NC(=O)/C(=C/c2ccc(-c3ccc(S(N)(=O)=O)cc3)o2)S1,EC50,[6],> 300 µM (not active)
same,EC50,[7],> 300 µM (not active)
CC(Oc1ccc(Cl)cc1Cl)C(=O)Nc1ccc(O)cc1 (stereo unspecified),IC50,[2],38.4 µM (active)
O=C(COC(=O)c1cnc(O)nc1O)Nc1ccccc1Br,EC50,[3],> 112 µM (not active)
same,EC50,[4],> 112 µM (not active)
COCCN1CCN(C(=O)c2ccc3nc(Cc4ccccc4F)oc3c2)CC1,EC50,[3],> 112 µM (not active)
same,EC50,[4],> 112 µM (not active)
Cc1cccc(-n2ncc3c(N4CC(C)CC(C)C4)ncnc32)c1 (stereo unspecified),AC50,[5],163 µM (active)
CN1C(=O)NC(=O)/C(=C/c2ccc[nH]2)C1=O,EC50,[6],> 300 µM (not active)
same,EC50,[7],> 300 µM (not active)
Cc1ccc(NC(=O)CN2CCCC2c2cccn2C)c(Br)c1 (stereo unspecified),AC50,[5],52.2 µM (active)
OCCNc1nc(NCc2ccccc2)c2ccccc2n1,EC50,[1],3.35 µM (active)
Cc1cccc(C(=N)NOC(=O)c2ccc3c(c2)OCO3)c1,EC50,[3],0.838 µM (active)
same,EC50,[4],1.47 µM (active)
CCCCN(C)C(=O)CCC(=O)NNc1nc2ccccc2c2nc(C)nn12,EC50,[6],> 300 µM (not active)
same,EC50,[7],5.37 µM (active)
